Where two headings read alike, the source gives them in different places.
Molecular target: T1, human ZAC (zinc activated ion channel) (Homo sapiens, UniProt Q401N2)
T1 construct: expressed in transfected cells; host or cells: HEK (human embryonic kidney) cells, transient calcium phosphate transfection, vector pcDNA1.1/amp, GFP co-transfected on a separate plasmid (pCDM8)
T1 sequence (Q401N2 26-412): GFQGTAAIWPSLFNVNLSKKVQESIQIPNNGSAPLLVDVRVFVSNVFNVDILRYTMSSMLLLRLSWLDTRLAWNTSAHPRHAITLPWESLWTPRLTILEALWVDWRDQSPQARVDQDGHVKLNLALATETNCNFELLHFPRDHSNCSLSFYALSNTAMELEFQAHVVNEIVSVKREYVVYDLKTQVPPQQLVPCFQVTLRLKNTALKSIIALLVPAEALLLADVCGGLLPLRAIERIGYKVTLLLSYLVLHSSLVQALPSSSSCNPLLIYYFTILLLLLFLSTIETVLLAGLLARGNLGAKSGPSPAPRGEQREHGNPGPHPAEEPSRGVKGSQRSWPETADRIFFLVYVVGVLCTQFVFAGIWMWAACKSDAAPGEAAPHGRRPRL
Experiment: Whole cell patch-clamp recording of currents from HEK cells transfected with human ZAC
Type: cell-based
Method: To generate HEK expressing hZAC, HEK cells were grown in Dulbecco's modified Eagle's medium, supplemented with 10% calf serum, 100 IU/ml penicillin, and 100 μg/ml streptomycin. Following confluence, the cells were seeded into 35 mm diameter dishes and transfected with cDNAs encoding the human ZAC subunit (in pcDNA1.1/amp) and green fluorescent protein (GFP) (in pCDM8). Cells were transfected using calcium phosphate precipitation as known in the art. Cells were used 24-44 h after transfection.
The whole cell patch-clamp technique was used to record currents from HEK cells. The bath was perfused continuously (5 ml/min) with an extracellular solution containing (in mM); NaCl, 140; KCl, 4.7; MgCl2, 1.2; CaCl2, 2.5; glucose, 11; and HEPES, 10 (pH 7.4 with NaOH). The electrode solution contained (in mM); KCl, 140; MgCl2, 2.0; EGTA, 11; and HEPES, 10 (pH 7.4 with KOH). The intracellular solution used to characterize the cation permeability of ZAC channels contained (in mM); KCl, 70; N-methyl-D-glucamine, 70; MgCl2, 2.0; EGTA, 11; and HEPES, 10 (pH 7.4 with HCl). The intracellular solution used to determine the contribution of Cl^− to the ZAC currents contained (in mM); KCl, 70; K^+ gluconate, 70; MgCl2, 2.0; EGTA, 11; and HEPES, 10 (pH 7.4 with KOH). Junction potentials were nulled prior to each experiment. Inappropriate inappropriate compensation was ignored in graphs of current-voltage relationships, but equilibrium potential values were corrected. Cells were clamped at −60 mV unless otherwise stated. Drugs were applied either by pressure ejection from modified micropipettes or by bath perfusion as known in the art. Experiments were performed at 22-24° C.
Currents were amplied (Axopatch 200A, Axon Instruments), low pass-filtered at 1 kHz, and digitized (Digidata 1320, Axon Instruments, Foster City, Calif.) for acquisition onto the hard drive of a personal computer. Currents were averaged, superimposed, and measured using pCLAMP software (Axon Instruments). Zn^+2 concentration-response data were obtained by prolonged (2 s) pressue ejection of randomized agonist concentrations from low resistance pipettes as known in the art.
To compensate, 1 mM Zn^+2 was applied before each concentration of Zn^+2. The amplitudes of the Zn^+2 activated currents were subsequently normalized to the current elicited by the prior application of 1 mM Zn^+2.
Graphs of concentration-response relationships were fitted using a logistic function as known in the art. Current-voltage relationships were analyzed by averaging at least two currents recorded at each holding potential. Individual current-voltage relationships were plotted, and a linear fit to points either side of current reversal yielded the equilibrium potential. All data are expressed as the arithmetic mean±S.E., and statistical comparisons were made using the Student's t test.

[1] = HEK cells expressing hZAC, whole cell patch-clamp, clamped at −60 mV, 22-24° C.
[2] = HEK cells expressing hZAC, whole cell patch-clamp

| Compound | Activation of ZAC [1] | also measured |
| --- | --- | --- |
| Nc1ncnc2c1ncn2[C@@H]1O[C@H](COP(=O)(O)OP(=O)(O)OP(=O)(O)O)[C@@H](O)[C@H]1O [ATP] | did not activate | – |
| NCC(=O)O [glycine] | did not activate | – |
| somatostain | did not activate | – |
| galonin | did not activate | – |
| neuropeptide Y | did not activate | – |
| N[C@@H](CCC(=O)O)C(=O)O [glutamate] | did not activate | – |
| COc1cc2c3cc1Oc1cc(ccc1O)C[C@@H]1c4c(cc(OC)c(O)c4Oc4ccc(cc4)C[C@@H]3N(C)CC2)CC[N+]1(C)C [Tubocurarine] | – | Effect of antagonists on ZAC (inhibition) [2]: inhibited |
| NCCCC(=O)O [GABA, γ-amino butyric acid] | did not activate | – |
| CC(C)c1cccc(C(C)C)c1O [propofol] | – | Activation of ZAC: did not activate |
| NCCc1c[nH]c2ccc(O)cc12 [5-HT, 5-hydroxytryptamine] | did not activate | – |
| [Zn+2] [Zn^+2, zinc] | activated | Concentration required for activation of ZAC [2]: > 30 µM; Equilibrium potential of Zn+2 activated currents (HEK cells expressing hZAC, whole cell patch-clamp, mean±S.E.): −5±1 mV |
| NCCc1c[nH]cn1 [histamine] | did not activate | – |
| α-bungarotoxin | – | Effect of antagonists on ZAC (inhibition): no effect |
| C[N+]1(C)CCc2cc3c(cc2[C@H]1[C@@H]1OC(=O)c2c1ccc1c2OCO1)OCO3.[I-] [bicuculline methiodide] | – | Effect of antagonists on ZAC (inhibition) [2]: no effect |
| N[C@@H](CCC(=O)N[C@@H](CS)C(=O)NCC(=O)O)C(=O)O [glutathione] | did not activate | – |
| CNC[C@H](O)c1ccc(O)c(O)c1 [epinephrine] | – | Activation of ZAC: did not activate |
| Cc1nccn1CC1CCc2c(c3ccccc3n2C)C1=O (stereo not shown) [ondansetron] | – | Effect of antagonists on ZAC (inhibition) [2]: no effect |
| CNC1(c2ccccc2Cl)CCCCC1=O (stereo not shown) [ketamine] | did not activate | – |
| CC(=O)[C@H]1CC[C@H]2[C@@H]3CC[C@H]4C[C@H](O)CC[C@]4(C)[C@H]3CC[C@]12C [allopregnanolone] | did not activate | – |
| CN1CC[C@]23c4c5ccc(O)c4O[C@H]2[C@@H](O)C=C[C@H]3[C@H]1C5 [morphine] | – | Activation of ZAC: did not activate |
| CC[C@H](C)[C@@H]1NC(=O)[C@H](Cc2ccc(O)cc2)NC(=O)[C@@H](N)CSSC[C@@H](C(=O)N2CCC[C@H]2C(=O)N[C@@H](CC(C)C)C(=O)NCC(N)=O)NC(=O)[C@H](CC(N)=O)NC(=O)[C@H](CCC(N)=O)NC1=O [oxytocin] | did not activate | – |
| NCCc1ccc(O)c(O)c1 [dopamine] | did not activate | – |
| CNC1(C)C2CCC(C2)C1(C)C (stereo not shown) [mecamylamine] | – | Effect of antagonists on ZAC (inhibition) [2]: no effect |

Reference: patent publication US20040248245A1, “Zinc activated ion channel” (priority 2003, published 2004)
